pKi: −log10 of the molar value. Counter-ions that a name gives are not always drawn.

For this assay, the target named is T1, human NK1 receptor (Homo sapiens, UniProt P25103).
T1 construct: expressed in transfected cells; host or cells: CHO cells infected with the Semliki virus expression system; membrane suspension used
T1 sequence (P25103 whole entry): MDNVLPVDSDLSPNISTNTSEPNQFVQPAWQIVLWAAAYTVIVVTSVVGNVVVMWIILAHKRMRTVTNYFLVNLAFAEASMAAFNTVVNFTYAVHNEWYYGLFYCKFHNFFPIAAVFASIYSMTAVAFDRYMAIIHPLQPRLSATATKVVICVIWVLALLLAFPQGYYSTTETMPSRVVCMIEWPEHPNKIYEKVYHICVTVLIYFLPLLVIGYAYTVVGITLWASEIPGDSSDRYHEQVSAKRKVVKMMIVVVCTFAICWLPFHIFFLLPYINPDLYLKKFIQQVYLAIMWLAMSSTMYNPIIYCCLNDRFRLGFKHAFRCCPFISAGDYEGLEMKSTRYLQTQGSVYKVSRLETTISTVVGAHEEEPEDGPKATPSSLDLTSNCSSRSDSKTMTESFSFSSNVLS
The assay is described as follows: [3H]substance P binding at human NK1 receptors in CHO cells. To be noted: affinity to the NK-1 receptor; [3H]substance P 0.6 nM displacement, CHO cell membranes, 60 min at room temperature. On the procedure:
The affinity of test compounds for the NK1 receptor was evaluated at human NK1 receptors in CHO cells infected with the human NK1 receptor (using the Semliki virus expression system) and radiolabelled with [^3H]substance P (final concentration 0.6 nM). Binding assays were performed in HEPES buffer (50 mM, pH 7.4) containing BSA (0.04%) leupeptin (8 μg/ml), MnCl2 (3 mM) and phosphoramidon (2 μM). Binding assays consisted of 250 μl of membrane suspension (1.25×10^5 cells/assay tube), […] of buffer of displacing agent and 125 μl of [^3H]substance P. Displacement curves were determined with at least seven concentrations of the compound. The assay tubes were incubated for 60 min at room temperature after which time the tube contents were rapidly filtered under vacuum through GF/C filters presoaked for 60 min with PEI (0.3%) with 2×2 ml washes of HEPES buffer (50 mM, pH 7.4). The radioactivity retained on the filters was measured by scintillation counting. All assays were performed in triplicate in at least 2 separate experiments.
For orientation: pKi means the Ki on a negative log10 scale, so that one unit is a factor of ten. A lower pKi goes with a large Ki. Molecule `O=C1OC2(CCN(C(=O)c3cc(C(F)(F)F)cc(C(F)(F)F)c3)CC2)C(c2ccccc2)CN1CCO` (racemic) [Example 22, (5RS)-9-(3,5-bis-trifluoromethyl-benzoyl)-3-(2-hydroxy-ethyl)-5-phenyl-1-oxa-3,9-diaza-spiro[5.5]undecan-2-one] showed a pKi of 7.80.

Turning to `CN1CCC(N2CC(c3ccccc3)C3(CCN(C(=O)c4cc(C(F)(F)F)cc(C(F)(F)F)c4)CC3)OC2=O)CC1` (racemic) [Example 12, (5RS)-9-(3,5-bis-trifluoromethyl-benzoyl)-3-(1-methyl-piperidin-4-yl)-5-phenyl-1-oxa-3,9-diaza-spiro[5.5]undecan-2-one], the pKi was 8.41. This pKi lies 0.61 log units higher than the previous one.

`CN1CCN(CCCN2CC(c3ccccc3)C3(CCN(C(=O)c4cc(C(F)(F)F)cc(C(F)(F)F)c4)CC3)OC2=O)CC1` (racemic) [Example 29, (5RS)-9-(3,5-bis-trifluoromethyl-benzoyl)-3-[3-(4-methyl-piperazin-1-yl)-propyl]-5-phenyl-1-oxa-3,9-diaza-spiro[5.5]undecan-2-one] gave a pKi of 7.98.

`CN(C)CCN1CC(c2ccccc2)C2(CCN(C(=O)c3cc(C(F)(F)F)cc(C(F)(F)F)c3)CC2)OC1=O` (racemic) [Example 28, (5RS)-9-(3,5-bis-trifluoromethyl-benzoyl)-3-(2-dimethylamino-ethyl)-5-phenyl-1-oxa-3,9-diaza-spiro[5.5]undecan-2-one hydrochloride] had a pKi of 8.13.

In turn, `O=C1NCC(c2ccc(F)c(F)c2)C2(CCN(C(=O)c3cc(C(F)(F)F)cc(C(F)(F)F)c3)CC2)O1` (racemic) [Example 2, (5RS)-9-(3,5-bis-trifluoromethyl-benzoyl)-5-(3,4-difluoro-phenyl)-1-oxa-3,9-diaza-spiro[5.5]undecan-2-one] had a pKi of 8.77.

In turn, `CN(C)CCCN1CC(c2ccccc2)C2(CCN(C(=O)c3cc(C(F)(F)F)cc(C(F)(F)F)c3)CC2)OC1=O` (stereo not drawn) [Example 25, (5RS)-9-(3,5-bis-trifluoromethyl-benzoyl)-3-(3-dimethylamino-4-yl-propyl)-5-phenyl-1-oxa-3,9-diaza-spiro[5.5]undecan-2-one] had a pKi of 8.46.

Molecule `O=C1NCC(c2cccc(F)c2F)C2(CCN(C(=O)c3cc(C(F)(F)F)cc(C(F)(F)F)c3)CC2)O1` (racemic) [Example 5, (5RS)-9-(3,5-bis-trifluoromethyl-benzoyl)-5-(2,3-difluoro-phenyl)-1-oxa-3,9-diaza-spiro[5.5]undecan-2-one] had a pKi of 8.07. Against the preceding molecule, the pKi is 0.39 log units lower.

Consider `O=C1OC2(CCN(C(=O)c3cc(C(F)(F)F)cc(C(F)(F)F)c3)CC2)C(c2ccccc2)CN1Cc1cccnc1` (racemic) [Example 16, (5RS)-9-(3,5-bis-trifluoromethyl-benzoyl)-5-phenyl-3-pyridin-3-ylmethyl-1-oxa-3,9-diaza-spiro[5.5]undecan-2-one], for which the negative logarithm of the Ki (pKi) was 8.21.

As to `O=C1NCC(c2ccc(Cl)c(Cl)c2)C2(CCN(C(=O)c3cc(C(F)(F)F)cc(C(F)(F)F)c3)CC2)O1` (racemic) [Example 3, (5RS)-9-(3,5-bis-trifluoromethyl-benzoyl)-5-(3,4-dichloro-phenyl)-1-oxa-3,9-diaza-spiro[5.5]undecan-2-one], the pKi is 8.58.

On to `O=C1NCC(c2ccc(Cl)cc2)C2(CCN(C(=O)c3cc(C(F)(F)F)cc(C(F)(F)F)c3)CC2)O1` (racemic) [Example 8, (5RS)-9-(3,5-bis-trifluoromethyl-benzoyl)-5-(4-chloro-phenyl)-1-oxa-3,9-diaza-spiro[5.5]undecan-2-one], for which the pKi was 7.96.

Molecule `O=C1OC2(CCN(C(=O)c3cc(C(F)(F)F)cc(C(F)(F)F)c3)CC2)C(c2ccccc2)CN1CCCN1CCOCC1` (racemic) [Example 24, (5RS)-9-(3,5-bis-trifluoromethyl-benzoyl)-3-(3-morpholin-4-yl-propyl)-5-phenyl-1-oxa-3,9-diaza-spiro[5.5]undecan-2-one] had a pKi of 8.46.

Take `O=C1OC2(CCN(C(=O)c3cc(C(F)(F)F)cc(C(F)(F)F)c3)CC2)C(c2ccc(F)c(F)c2)CN1CC(F)F` (racemic) [Example 15, (5RS)-9-(3,5-bis-trifluoromethyl-benzoyl)-3-(2,2-difluoro-ethyl)-5-(3,4-difluoro-phenyl)-1-oxa-3,9-diaza-spiro[5.5]undecan-2-one]: the pKi was 7.94.

In the case of `O=C1OC2(CCN(C(=O)c3cc(C(F)(F)F)cc(C(F)(F)F)c3)CC2)C(c2ccccc2)CN1CCCN1CCCC1` (racemic) [Example 23, (5RS)-9-(3,5-bis-trifluoromethyl-benzoyl)-5-phenyl-3-(3-pyrrolidin-1-yl-propyl)-1-oxa-3,9-diaza-spiro[5.5]undecan-2-one], the pKi was 8.47.

Molecule `O=C1NCC(c2ccccc2)C2(CCN(C(=O)c3cc(C(F)(F)F)cc(C(F)(F)F)c3)CC2)O1` (racemic) [Example 4, (5RS)-9-(3,5-bis-trifluoromethyl-benzoyl)-5-phenyl-1-oxa-3,9-diaza-spiro[5.5]undecan-2-one] showed a pKi of 8.29. The pKi values of the last two molecules are within 0.2 log units of each other.

Consider `O=C1NCC(c2cccc(Cl)c2)C2(CCN(C(=O)c3cc(C(F)(F)F)cc(C(F)(F)F)c3)CC2)O1` (racemic) [Example 1, (5RS)-9-(3,5-bis-trifluoromethyl-benzoyl)-5-(3-chloro-phenyl)-1-oxa-3,9-diaza-spiro[5.5]undecan-2-one], for which the pKi was 8.29.

`Cc1ccccc1C1CNC(=O)OC12CCN(C(=O)c1cc(C(F)(F)F)cc(C(F)(F)F)c1)CC2` (racemic) [Example 7, (5RS)-9-(3,5-bis-trifluoromethyl-benzoyl)-5-o-tolyl-1-oxa-3,9-diaza-spiro[5.5]undecan-2-one] had a pKi of 7.97.

The molecule `O=C(c1cc(C(F)(F)F)cc(C(F)(F)F)c1)N1CCC2(CC1)OC(=O)N(C1CCOCC1)CC2c1ccccc1` (racemic) [Example 13, (5RS)-9-(3,5-bis-trifluoromethyl-benzoyl)-5-phenyl-3-(tetrahydro-pyran-4-yl)-1-oxa-3,9-diaza-spiro[5.5]undecan-2-one] showed a pKi of 7.72.

On to `O=C1OC2(CCN(C(=O)c3cc(C(F)(F)F)cc(C(F)(F)F)c3)CC2)C(c2ccccc2)CN1CCN1CCCC1` (racemic) [Example 30, (5RS)-9-(3,5-bis-trifluoromethyl-benzoyl)-5-phenyl-3-(2-pyrrolidin-1-yl-ethyl)-1-oxa-3,9-diaza-spiro[5.5]undecan-2-one; hydrochloride], for which the pKi was 7.94.

`O=C1NCC(c2ccccc2Cl)C2(CCN(C(=O)c3cc(C(F)(F)F)cc(C(F)(F)F)c3)CC2)O1` (racemic) [Example 11, (5RS)-9-(3,5-bis-trifluoromethyl-benzoyl)-5-(2-chloro-phenyl)-1-oxa-3,9-diaza-spiro[5.5]undecan-2-one] gave a pKi of 7.63.

As to `COc1cccc(C2CNC(=O)OC23CCN(C(=O)c2cc(C(F)(F)F)cc(C(F)(F)F)c2)CC3)c1` (racemic) [Example 10, (5RS)-9-(3,5-bis-trifluoromethyl-benzoyl)-5-(3-methoxy-phenyl)-1-oxa-3,9-diaza-spiro[5.5]undecan-2-one], the pKi was 7.83.

`Cc1ccc(C2CNC(=O)OC23CCN(C(=O)c2cc(C(F)(F)F)cc(C(F)(F)F)c2)CC3)cc1C` (racemic) [Example 9, (5RS)-9-(3,5-bis-trifluoromethyl-benzoyl)-5-(3,4-dimethyl-phenyl)-1-oxa-3,9-diaza-spiro[5.5]undecan-2-one] showed a pKi of 7.90.

`CN(C)C(=O)CN1CC(c2ccccc2)C2(CCN(C(=O)c3cc(C(F)(F)F)cc(C(F)(F)F)c3)CC2)OC1=O` (racemic) [Example 14, (5RS)-2-[9-(3,5-bis-trifluoromethyl-benzoyl)-2-oxo-5-phenyl-1-oxa-3,9-diaza-spiro[5.5]undec-3-yl]-N,N-dimethyl-acetamide] had a pKi of 8.18. This pKi lies 0.28 log units higher than the previous one.

Consider `CN1CC(c2ccc(F)c(F)c2)C2(CCN(C(=O)c3cc(C(F)(F)F)cc(C(F)(F)F)c3)CC2)OC1=O` (racemic) [Example 20, (5RS)-9-(3,5-bis-trifluoromethyl-benzoyl)-5-(3,4-difluoro-phenyl)-3-methyl-1-oxa-3,9-diaza-spiro[5.5]undecan-2-one], for which the pKi is 7.51.

Turning to `CN1CC(c2ccccc2)C2(CCN(C(=O)c3cc(C(F)(F)F)cc(C(F)(F)F)c3)CC2)OC1=O` (racemic) [Example 18, (5RS)-9-(3,5-bis-trifluoromethyl-benzoyl)-3-methyl-5-phenyl-1-oxa-3,9-diaza-spiro[5.5]undecan-2-one], the pKi is 7.81. This pKi lies 0.30 log units higher than the previous one.

Consider `O=C1OC2(CCN(C(=O)c3cc(C(F)(F)F)cc(C(F)(F)F)c3)CC2)C(c2ccccc2)CN1CCN1CCOCC1` (stereo not drawn) [Example 27, (5RS)-9-(3,5-2is-trifluoromethyl-benzoyl)-3-(2-morpholin-4-yl-ethyl)-5-phenyl-1-oxa-3,9-diaza-spiro[5.5]undecan-2-one hydrochloride], for which the pKi is 8.20.

In the case of `O=C1NCC(c2cc(F)ccc2F)C2(CCN(C(=O)c3cc(C(F)(F)F)cc(C(F)(F)F)c3)CC2)O1` (racemic) [Example 6, (5RS)-9-(3,5-bis-trifluoromethyl-benzoyl)-5-(2,5-difluoro-phenyl)-1-oxa-3,9-diaza-spiro[5.5]undecan-2-one], the pKi is 8.01.

As for `O=C1OC2(CCN(C(=O)c3cc(C(F)(F)F)cc(C(F)(F)F)c3)CC2)C(c2ccccc2)CN1CCCN1CCC(O)C1` (racemic) [Example 26, (5RS)-9-(3,5-bis-trifluoromethyl-benzoyl)-3-[3-(3-hydroxy-pyrrolidin-1-yl)-propyl]-5-phenyl-1-oxa-3,9-diaza-spiro[5.5]undecan-2-one], the pKi was 8.39.

Values taken from US6599900B2, “1-oxa-3,9-diaza-spiro[5,5]undecan-2-ones” (Syntex (U.S.A.) LLC, priority 2001, dated 2003).
